Source: PMC8748556, “CXCR4 peptide-based fluorescence endoscopy in a mouse model of Barrett’s esophagus” (EJNMMI Research, 2022)
Square brackets hold non-standard residues; d marks the D form. Side chains are listed from the residue outwards. Peptide text beside a SMILES is read from it. * marks the point of attachment. X1 = C[N+]1=C(C=CC=CC=C2N(CCCCCC(=O)*)c3ccc(S(=O)(=O)O)cc3C2(C)C)C(C)(C)c2cc(S(=O)(=O)[O-])ccc21; dTyr(3-I) = N[C@H](Cc1ccc(O)c(I)c1)C(=O)O; 2Nal = N[C@@H](Cc1ccc2ccccc2c1)C(=O)O; dNMeOrn = CN[C@H](CCCN)C(=O)O; 4Abz = Nc1ccc(C(=O)O)cc1; dDap = NC[C@@H](N)C(=O)O

How the values were obtained:
[1] = tested on: dysplastic lesions of L2-IL1B mice; experiment: Fluorescence molecular endoscopy; type: in vivo; settings: L2-IL1B mice 12-14 months, 60 nmol i.v., 4 h p.i.; lesion vs normal surrounding esophageal tissue; mean ± SEM, 3 mice, 2-5 lesions per mouse
Description: Three L2-IL1B mice (12–14 months old) were used for fluorescence molecular endoscopy before ex vivo imaging. Endoscopy was performed after sacrificing the mice at 4 h p.i. of MK007 using a homemade system previously developed by our group and optimized for small animal imaging. Briefly, the endoscopy system consisted of a flexible fiberscope (Micrendo-Fiberskop, SCHÖLLY FIBER OPTIC GMBH, Denzlingen, Germany) where both white light (provided by a 250-W halogen lamp, KL-2500 LCD, Schott AG, Mainz, Germany) and fluorescence (fiber coupled continuous wave (CW) laser diode emitting at 670 nm, SLD1332V, Thorlabs, Newton, NJ, USA) are coupled, allowing simultaneous color and near-infrared (NIR) fluorescence endoscopy. Videos in color and fluorescence channel were recorded using a custom-made endoscopy software and stored in AVI file format. Two NaCl-injected IL1B mice (17 and 12 months old) were used as negative controls for the validation of the endoscopy system. […] For quantification of Sulfo-Cy5 signal, single frames or frame sequences showing dysplastic lesions were used and the fluorescence signal from the target lesion and the background were quantified with ImageJ by handmade ROIs. […] The TBR was then calculated by dividing the mean fluorescence intensity from the lesion by the one from the background region.

[2] = type: physicochemical; settings: pH 7.4
Description: Given promising data obtained with MK007 in our preclinical mouse model, we performed preliminary in vitro studies on human cell lines. Competition binding studies (IC50) were performed using Jurkat cells (4 × 10^5 cells/sample) and [^125I]FC131 as radioligand. […] To determine the log P of MK007, the corresponding non-iodinated precursor was radioiodinated using the Iodogen method, and the octanol/PBS partition coefficient of [^125I]MK007 was determined using a modified shake-flask-method.

[3] = tested on: dysplastic lesions at the squamocolumnar junction of L2-IL1B mice; type: in vivo, mouse
Description: Five 12-to-16-month-old IL1B mice were intravenously injected into the tail vein with 60 nmol of MK007 diluted in 0.9% NaCl (tot. vol. 150 µL; 400 nmol/mL) and sacrificed 4 h post injection (p.i.) by isoflurane overdosage. One non-injected 12-month-old IL1B mouse served as negative control. The whole stomach and esophagus were then excised and imaged using a homemade ex vivo wide-field fluorescence imaging system. Briefly, the fluorescence images were acquired at different time exposure (0.2, 0.5, 1 and 2 s), using a 670 nm diode laser (B&W tek, Newark, DE, USA) and appropriate bandpass filter (780/10). A back illuminated EM-CCD camera (iXon DU888, Andor, Belfast, Northern Ireland, UK) was then used to capture the signal. The target-to-background ratio (TBR) of the stomach was performed by dividing the fluorescence signal in the squamocolumnar junction (SCJ) area (target lesion) with the adjacent normal gastric glandular tissue (background area) using ImageJ/Fiji software. In the organs, the signal quantification was performed by calculating the corrected total cell fluorescence/CTCF = integrated density – [(area * AVERAGE (mean background)]. For CTCF, three regions of interest (ROIs) without any tissue were used as background.

C[C@@H](NC(=O)[C@@H](CCCNC(=N)N)NC(=O)[C@@H](CN)NC(=O)CCCCCN1C(=CC=CC=CC2=[N+](C)c3ccc(S(=O)(=O)[O-])cc3C2(C)C)C(C)(C)c2cc(S(=O)(=O)O)ccc21)C(=O)Nc1ccc(C(=O)NCCC[C@@H]2C(=O)N[C@@H](CCCNC(=N)N)C(=O)N[C@@H](Cc3ccc4ccccc4c3)C(=O)NCC(=O)N[C@H](Cc3ccc(O)c(I)c3)C(=O)N2C)cc1 [MK007] (cyclo([dTyr(3-I)][dNMeOrn]([4Abz-dA-dR-dDap-X1])R[2Nal]G))
Target-to-background ratio (TBR), fluorescence endoscopy [1]: 2.13 ± 0.17
log P [2]: − 1.83 ± 0.02
Target-to-background ratio (TBR), ex vivo wide-field imaging ([3]; L2-IL1B mice 12-16 months, 60 nmol i.v., 4 h p.i., SCJ vs adjacent normal gastric glandular tissue, mean ± SEM, n = 5): 2.45 ± 0.24
mean target-to-background ratio in dysplastic lesions (ex vivo imaging and endoscopy) ([3]; L2-IL1B mice, 4 h after injection, abstract statement covering ex vivo imaging and endoscopy): > 2
